# Like-named read-outs stand apart in the source and are kept apart here.
# Columns and labels:
# human Nav1.7 = human Nav1.7 (Homo sapiens, UniProt Q15858); test: FLIPR or FLIPR TETRA sodium dye assay with KCl and test article pre-incubation; assay type: cell-based
# hNav1.7 = hNav1.7 (Homo sapiens, UniProt Q15858); test: Electrophysiology (EP) assay, whole-cell patch clamp; assay type: cell-based; settings: for Kd: resting block dissociation constant, read-out: EP Nav1.7 Kr
# Procedure: The hNav1.7 expressing HEK-293 cells were plated on 35 mm culture dishes pre-coated with poly-D-lysine in standard DMEM culture media (Mediatech, Inc., Herndon, Va.) and incubated in a 5% CO2 incubator at 37° C. Cultured cells were used approximately 12-48 hours after plating.
# On the day of experimentation, the 35 mm dish was placed on the stage of an inverted microscope equipped with a perfusion system that continuously perfuses the culture dish with fresh recording media. A gravity driven superfusion system was used to apply test solutions directly to the cell under evaluation. This system consists of an array of glass pipette glass connected to a motorized horizontal translator. The outlet of the shooter was positioned approximately 100 μm from the cell of interest.
# Whole cell currents were recorded using the whole-cell patch clamp configuration using an Axopatch 200B amplifier (Axon Instruments, Foster City Calif.), 1322A A/D converter (Axon Instruments) and pClamp software (v. 8; Axon Instruments) and stored on a personal computer. Gigaseals were formed and the whole-cell configuration was established in voltage clamp mode, and membrane currents generated by hNav1.7 were recorded in gap-free mode. Borosilicate glass pipettes have resistance values between 1.5 and 2.0 MΩ when filled with pipette solution and series resistance (<5 MΩ) was compensated 75-80%. Signals were sampled at 50 kHz and low pass filtered at 3 kHz.
# After establishing the whole-cell configuration in voltage clamp mode, voltage protocols were run to establish the 1) test potential, 2) holding potential, and 3) the conditioning potential for each cell.
# After establishing the whole-cell configuration in voltage clamp mode, a standard I-V protocol was run to determine the potential at which the maximal current (Imax) is elicited. This potential was the test potential (Vt). To determine a conditioning potential at which 100% of channels were in the inactivated state, a standard steady-state inactivation (SSIN) protocol was run using a series of fifteen 100 ms-long depolarizing prepulses, incrementing in 10 mV steps, immediately followed by a 5 ms testing pulse, Vt, to Vmax. This protocol also permitted determination of the holding potential at which all channels are in the resting state.
# For compounds causing significant retardation of recovery from inactivation, an estimate of the affinity for the inactivated state of the channel (Ki) was generated using the following protocol. From the negative, no residual inactivation, holding potential, the cell was depolarized to the conditioning voltage for 2-5 seconds, returned to the negative holding potential for 10-20 ms to relieve fast inactivation and then depolarized to the test potential for ˜15 ms. This voltage protocol was repeated every 10-15 seconds, first to establish a baseline in the absence of the test compound, then in the presence of the test compound.
# After a stable baseline was established, the test compound was applied and block of the current elicited by the test pulse assessed. In some cases, multiple cumulative concentrations were applied to identify a concentration that blocked between 40-60% of this current. Washout of the compound was attempted by superfusing with control solution once steady-state block was observed. An estimate of the Ki was calculated as follows: Ki=[drug]*{FR/(1−FR)}, Eq. 1 where [drug] is the concentration of a drug, and FR=I(after drug)/I(control), Eq. 2 where I is the peak current amplitude. If multiple concentrations were used, Ki was determined from the fit of a logistic equation to FRs plotted against corresponding drug concentrations.
# In the alternative, the voltage clamp protocol to examine hNav1.7 currents was as follows. […]
# [1] = sodium dye assay with KCl, recombinant Nav1.7/HEK293 cells, read-out: FLIPR Nav1.7 IC50 (μM) ± SEM
# [2] = affinity for the inactivated state of the channel, HEK-293 cells, spread on the next grid line, read-out: EP Nav1.7 Kj
# [3] = HEK-293 cells, spread on the next grid line
# hNav1.7, sequence (Q15858 1-1977 isoform Q15858-3): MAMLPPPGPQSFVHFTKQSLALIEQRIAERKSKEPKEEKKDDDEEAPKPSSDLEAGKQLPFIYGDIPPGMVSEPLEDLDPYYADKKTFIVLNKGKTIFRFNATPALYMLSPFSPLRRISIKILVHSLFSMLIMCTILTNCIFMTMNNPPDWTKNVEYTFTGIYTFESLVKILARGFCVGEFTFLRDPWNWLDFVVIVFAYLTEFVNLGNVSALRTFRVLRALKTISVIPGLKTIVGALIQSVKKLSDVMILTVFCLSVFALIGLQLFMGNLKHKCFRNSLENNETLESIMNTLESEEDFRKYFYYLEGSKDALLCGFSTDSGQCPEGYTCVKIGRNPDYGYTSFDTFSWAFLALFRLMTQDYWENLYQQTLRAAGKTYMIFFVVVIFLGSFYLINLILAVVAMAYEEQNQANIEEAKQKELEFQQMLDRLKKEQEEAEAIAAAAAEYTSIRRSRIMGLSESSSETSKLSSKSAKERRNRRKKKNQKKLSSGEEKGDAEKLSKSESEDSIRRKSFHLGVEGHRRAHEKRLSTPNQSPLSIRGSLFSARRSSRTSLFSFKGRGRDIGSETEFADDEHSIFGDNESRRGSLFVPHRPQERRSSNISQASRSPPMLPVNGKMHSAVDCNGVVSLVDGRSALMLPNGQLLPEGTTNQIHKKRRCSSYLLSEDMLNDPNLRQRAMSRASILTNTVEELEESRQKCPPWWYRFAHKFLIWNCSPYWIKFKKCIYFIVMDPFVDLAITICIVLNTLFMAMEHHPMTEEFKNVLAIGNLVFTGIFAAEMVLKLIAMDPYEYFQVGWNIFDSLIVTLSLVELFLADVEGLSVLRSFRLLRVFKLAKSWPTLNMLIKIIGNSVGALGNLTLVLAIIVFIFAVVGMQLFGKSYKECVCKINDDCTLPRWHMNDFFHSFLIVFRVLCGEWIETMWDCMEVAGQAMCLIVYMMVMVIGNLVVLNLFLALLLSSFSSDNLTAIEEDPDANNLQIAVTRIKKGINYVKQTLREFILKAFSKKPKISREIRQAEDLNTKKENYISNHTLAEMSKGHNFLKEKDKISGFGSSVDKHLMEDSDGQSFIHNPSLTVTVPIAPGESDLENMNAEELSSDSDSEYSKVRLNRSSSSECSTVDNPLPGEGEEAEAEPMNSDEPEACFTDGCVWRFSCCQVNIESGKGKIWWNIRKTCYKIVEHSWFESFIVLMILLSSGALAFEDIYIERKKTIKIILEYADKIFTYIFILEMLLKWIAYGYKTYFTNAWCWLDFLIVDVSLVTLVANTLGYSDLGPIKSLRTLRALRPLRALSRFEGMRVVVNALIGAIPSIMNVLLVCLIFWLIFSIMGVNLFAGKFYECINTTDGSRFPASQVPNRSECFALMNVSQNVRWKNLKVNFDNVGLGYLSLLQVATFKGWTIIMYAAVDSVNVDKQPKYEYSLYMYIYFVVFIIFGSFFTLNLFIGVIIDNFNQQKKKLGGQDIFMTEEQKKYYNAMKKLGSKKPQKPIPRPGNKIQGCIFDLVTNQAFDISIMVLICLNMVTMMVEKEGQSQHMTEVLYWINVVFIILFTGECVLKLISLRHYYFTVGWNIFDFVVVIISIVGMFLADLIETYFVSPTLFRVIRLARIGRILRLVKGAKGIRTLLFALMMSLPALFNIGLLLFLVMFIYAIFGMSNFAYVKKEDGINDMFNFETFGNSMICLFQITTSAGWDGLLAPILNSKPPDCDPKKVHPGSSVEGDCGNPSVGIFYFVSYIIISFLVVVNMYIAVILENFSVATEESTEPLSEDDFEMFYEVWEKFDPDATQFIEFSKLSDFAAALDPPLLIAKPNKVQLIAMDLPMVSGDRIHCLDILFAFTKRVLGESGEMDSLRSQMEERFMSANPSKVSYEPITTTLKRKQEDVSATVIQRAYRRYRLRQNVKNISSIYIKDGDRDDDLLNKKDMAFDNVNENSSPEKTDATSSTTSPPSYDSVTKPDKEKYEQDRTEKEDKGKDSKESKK
# human Nav1.7, sequence (Q15858 1-1977 isoform Q15858-3): as above
Structure (SMILES),IC50 (human Nav1.7; [1]) [µM],other results
"CCOC(=O)c1nc(-c2ccc(Oc3ccccc3)cc2)c2ccccc2n1 [Compound 3, ethyl 4-(4-phenoxyphenyl)quinazoline-2-carboxylate]",1.57,
"O=C(O)c1nc(-c2ccc(Oc3ccccc3)cc2)c2ccccc2n1 [Compound 4, 4-(4-phenoxyphenyl)quinazoline-2-carboxylic acid]",> 20,
"NC(=O)c1nc(-c2ccc(Oc3ccccc3)cc2)c2ccccc2n1 [Compound 5, 4-(4-phenoxyphenyl)quinazoline-2-carboxamide]",0.097,Ki (hNav1.7; [2]): 120 nM
"OC[C@@H](O)c1nc(-c2ccc(Oc3ccc(F)cc3)cc2)c2ccccc2n1 [Compound 10, (S)-1-(4-(4-(4-fluorophenoxy)phenyl)quinazolin-2-yl)ethane-1,2-diol]",0.849,
"NC(=O)[C@H](CO)Nc1nc(-c2ccc(Oc3ccc(F)cc3)cc2)c2ccccc2n1 [Compound 13a, (S)-2-{4-[4-(4-fluorophenoxy)phenyl]quinazolin-2-ylamino}-3-hydroxy-propionamide]",0.836,Ki (hNav1.7; [2]): 740 nM
"O=C1CN(c2nc(-c3ccc(Oc4ccc(F)cc4)cc3)c3ccccc3n2)CCN1 [Compound 13b, 4-(4-(4-(4-fluorophenoxy)phenyl)quinazolin-2-yl)piperazin-2-one]",0.839,
"OCCNc1nc(-c2ccc(Oc3ccc(F)cc3)cc2)c2ccccc2n1 [Compound 13c, 2-((4-(4-(4-fluorophenoxy)phenyl)quinazolin-2-yl)amino)ethanol]",0.369,
"CN(C)CCNc1nc(-c2ccc(Oc3ccc(F)cc3)cc2)c2ccccc2n1 [Compound 13d, N^1-(4-(4-(4-fluorophenoxy)phenyl)quinazolin-2-yl)-N^2,N^2-dimethylethane-1,2-diamine]",0.317,
"Nc1nc(-c2ccc(Oc3ccc(F)cc3)cc2)c2ccccc2n1 [Compound 13e, 4-(4-(4-fluorophenoxy)phenyl)quinazolin-2-amine]",0.426,
"COC(=O)[C@@H]1CCCN1c1nc(-c2ccc(Oc3ccc(F)cc3)cc2)c2ccccc2n1 [Compound 13f, (S)-methyl 1-(4-(4-(4-fluorophenoxy)phenyl)-quinazolin-2-yl)pyrrolidine-2-carboxylate]",0.642,Ki (hNav1.7; [2]): 620 nM; Kd (hNav1.7; [3]): 23900 nM
"CN(N)c1nc(-c2ccc(Oc3ccc(F)cc3)cc2)c2ccccc2n1 [Compound 13g, 4-(4-(4-fluorophenoxy)phenyl)-2-(1-methylhydrazinyl)quinazoline]",0.309,
"CCN1CCN(c2nc(-c3ccc(Oc4ccc(F)cc4)cc3)c3ccccc3n2)CC1 [Compound 13h, 2-(4-ethylpiperazin-1-yl)-4-(4-(4-fluorophenoxy)phenyl)quinazoline]",0.236,
"OC1CCN(c2nc(-c3ccc(Oc4ccc(F)cc4)cc3)c3ccccc3n2)CC1 [Compound 13i, 1-(4-(4-(4-fluorophenoxy)phenyl)quinazolin-2-yl)piperidin-4-ol]",0.428,
"OCCN1CCN(c2nc(-c3ccc(Oc4ccc(F)cc4)cc3)c3ccccc3n2)CC1 [Compound 13j, 2-(4-(4-(4-(4-fluorophenoxy)phenyl)quinazolin-2-yl)piperazin-1-yl)ethanol]",0.104,
"CN1CCN(c2nc(-c3ccc(Oc4ccc(F)cc4)cc3)c3ccccc3n2)CC1 [Compound 13k, 4-(4-(4-fluorophenoxy)phenyl)-2-(4-methylpiperazin-1-yl)quinazoline]",0.418,Ki (hNav1.7; [2]): 70 nM; Kd (hNav1.7; [3]): 2090 nM
"NC(=O)[C@@H]1CCCN1c1nc(-c2ccc(Oc3ccc(F)cc3)cc2)c2ccccc2n1 [Compound 13l, (S)-1-(4-(4-(4-fluorophenoxy)phenyl)quinazolin-2-yl)pyrrolidine-2-carboxamide]",0.105,Ki (hNav1.7; [2]): 190 nM
"COC(=O)[C@@H]1C[C@@H](O)CN1c1nc(-c2ccc(Oc3ccc(F)cc3)cc2)c2ccccc2n1 [Compound 13m, (2S,4R)-methyl 1-(4-(4-(4-fluorophenoxy)phenyl)quinazolin-2-yl)-4-hydroxypyrrolidine-2-carboxylate]",0.833,
"CNc1nc(-c2ccc(Oc3ccc(F)cc3)cc2)c2ccccc2n1 [Compound 13n, 4-(4-(4-fluorophenoxy)phenyl)-N-methylquinazolin-2-amine]",0.294,
"Fc1ccc(Oc2ccc(-c3nc(NCCCn4ccnc4)nc4ccccc34)cc2)cc1 [Compound 13o, N-(3-(1H-imidazol-1-yl)propyl)-4-(4-(4-fluorophenoxy)phenyl)quinazolin-2-amine]",0.325,
"CN(C)CCCNc1nc(-c2ccc(Oc3ccc(F)cc3)cc2)c2ccccc2n1 [Compound 13p, N^1-(4-(4-(4-fluorophenoxy)phenyl)quinazolin-2-yl)-N^3,N^3-dimethylpropane-1,3-diamine]",0.205,
"OC[C@H](O)CNc1nc(-c2ccc(Oc3ccc(F)cc3)cc2)c2ccccc2n1 [Compound 13q, (R)-3-((4-(4-(4-fluorophenoxy)phenyl)quinazolin-2-yl)amino)propane-1,2-diol]",0.071,Ki (hNav1.7; [2]): 220 nM
"OC[C@@H](O)CNc1nc(-c2ccc(Oc3ccc(F)cc3)cc2)c2ccccc2n1 [Compound 13r, (S)-3-((4-(4-(4-fluorophenoxy)phenyl)quinazolin-2-yl)amino)propane-1,2-diol]",0.32,
"NC(=O)C[C@H](Nc1nc(-c2ccc(Oc3ccc(F)cc3)cc2)c2ccccc2n1)C(N)=O [Compound 13s, (S)-2-((4-(4-(4-fluorophenoxy)phenyl)quinazolin-2-yl)amino)succinamide]",0.313,
"CN1[C@@H]2CCC[C@H]1C[C@@H](Nc1nc(-c3ccc(Oc4ccc(F)cc4)cc3)c3ccccc3n1)C2 [Compound 13t, 4-(4-(4-fluorophenoxy)phenyl)-N-((1R,3S,5S)-9-methyl-9-azabicyclo[3.3.1]nonan-3-yl)quinazolin-2-amine]",,IC50 (human Nav1.7): 0.228 µM; Ki (hNav1.7): 20 nM
"OCC(CO)Nc1nc(-c2ccc(Oc3ccc(F)cc3)cc2)c2ccccc2n1 [Compound 13u, 2-((4-(4-(4-fluorophenoxy)phenyl)quinazolin-2-yl)amino)propane-1,3-diol]",0.208,Ki (hNav1.7; [2]): 640 nM; Kd (hNav1.7; [3]): 55300 nM
"O=C1NCCN1CCNc1nc(-c2ccc(Oc3ccc(F)cc3)cc2)c2ccccc2n1 [Compound 13v, 1-(2-((4-(4-(4-fluorophenoxy)phenyl)quinazolin-2-yl)amino)ethyl)imidazolidin-2-one]",0.204,Ki (hNav1.7; [2]): 460 nM; Kd (hNav1.7; [3]): 23700 nM
"NN(CCO)c1nc(-c2ccc(Oc3ccc(F)cc3)cc2)c2ccccc2n1 [Compound 13w, 2-(1-(4-(4-(4-fluorophenoxy)phenyl)quinazolin-2-yl)hydrazinyl)ethanol]",0.07,
"NC(=O)CNc1nc(-c2ccc(Oc3ccc(F)cc3)cc2)c2ccccc2n1 [Compound 13x, 2-((4-(4-(4-fluorophenoxy)phenyl)quinazolin-2-yl)amino)acetamide]",> 20,
"CCOc1nc(-c2ccc(Oc3ccc(F)cc3)cc2)c2ccccc2n1 [Compound 13y, 2-ethoxy-4-(4-(4-fluorophenoxy)phenyl)-quinazoline]",0.995,
"Fc1ccc(Oc2ccc(-c3nc(Oc4ccccn4)nc4ccccc34)cc2)cc1 [Compound 13z, 4-(4-(4-fluorophenoxy)phenyl)-2-(pyridin-2-yloxy)quinazoline]",1.91,
